Results on 35 molecules are retold here after ChEMBL document CHEMBL1157539, “Thousands of chemical starting points for antimalarial lead identification” (Nature, 2010).

This assay relates to Plasmodium falciparum. The assay is described as follows: GSK_TCMDC: Inhibition of Plasmodium falciparum 3D7 in whole erythrocytes, using parasite LDH activity as an index of growth. To be noted: Plasmodium falciparum, 3D7. The class given is functional, organism-based.

Take `CCCCN(Cc1cnccc1-c1ccc(Br)cc1)c1ccc(C(O)(C(F)(F)F)C(F)(F)F)cc1`: the XC50 is 1060 nM.

In turn, `Cn1cnc2nc(NCCc3ccccc3)nc(NCc3cccc4ccccc34)c21` yielded an XC50 of 327 nM.

For the molecule `CC(C)CCOc1ccc(NC(=O)c2cccs2)cc1`, the XC50 was determined as 514 nM.

For the molecule `COc1ccc(Nc2nccc(NCCNC(=O)Nc3cc(C)ccc3C)n2)cc1`, the XC50 came out at 1050 nM.

In turn, `COc1ccc(Cl)cc1NC(=O)CN(C)C(=O)c1cnn(-c2ccccc2)n1` returned an XC50 of 228 nM.

Take `C=CCOC(=O)O[C@@H]1[C@@H](OC(=O)OCC=C)[C@@H](OC)O[C@H](COC(c2ccccc2)(c2ccccc2)c2ccccc2)[C@H]1OC(=O)OCC=C`: the XC50 came out at 887 nM.

For `O=C(NCCCCCN1CCC(c2c[nH]c3ccccc23)CC1)Nc1ccc(Cl)c(Cl)c1`, the XC50 worked out at 920 nM.

Turning to `CCN(CC)S(=O)(=O)c1ccc(Cl)c(C(=O)Nc2ccc3nc(C)sc3c2)c1`, the XC50 came to 798 nM.

In turn, `CCOC(=O)c1ccc(NC(=O)NNC(=O)c2ccc(CCN3CCC(c4nc(COCC(F)(F)F)c(-c5ccc(F)cc5)o4)CC3)cc2)cc1` returned an XC50 of 574 nM.

In the case of `N#Cc1cccc(C(O)CN(Cc2ccccc2)Cc2ccccc2)c1` (stereo not given), the XC50 stood at 1270 nM.

The molecule `O=C(Nc1ccc(Cl)cc1)Nc1ccc(OCC(O)CN2CCCCC2)cc1` (stereo not given) displayed an XC50 of 1160 nM.

Turning to `Nc1nc(N)c2cc(NC(=O)c3ccc(Cl)c(Cl)c3)ccc2n1`, the XC50 was determined as 146 nM.

As to `Cc1cc(N[C@@H](Cc2ccccc2)C(=O)NCCOc2ccccc2)nc(Nc2ccccc2)n1`, the XC50 was found to be 875 nM.

In turn, `CS(=O)(=O)c1ccc(CNCc2ccc(-c3cccc(-c4nc5ccccc5[nH]4)c3)cc2)cc1` had an XC50 of 326 nM.

`Nc1cccc(CNCc2cccc(-c3cccc(-c4nc5cc(C(F)(F)F)ccc5[nH]4)c3)c2)c1` displayed an XC50 of 510 nM.

With `O=C(NCCN1CCCc2ccccc21)C1CCN(c2nc(-c3ccc(Cl)cc3)no2)CC1`, the XC50 came out at 695 nM.

With `Cc1ccc(NC(=O)c2ccc(CN3CCCN(CC4CCCCC4)CC3)cc2)cc1`, the XC50 amounted to 797 nM.

With `CC(Nc1ccc2c(c1)OCCO2)C(=O)Nc1cc(C(F)(F)F)ccc1N1CCOCC1` (stereo not given), the XC50 was 408 nM.

`O=C(Cc1c[nH]cn1)Nc1cccc(-c2ccc(-c3nc4cc(C(F)(F)F)ccc4[nH]3)cc2)c1` showed an XC50 of 700 nM.

The molecule `CCCCc1ccc(S(=O)(=O)Nc2ccc3c(c2)CCN(Cc2c[nH]c4cnccc24)CC3)cc1` yielded an XC50 of 674 nM.

For `CNC(=O)c1cc(S(=O)(=O)N2CCN(c3ccccn3)CC2)cs1`, the XC50 came out at 669 nM.

As for `Fc1ccc2[nH]cc(CCN3CCC(CNCc4ccccc4)CC3)c2c1`, the XC50 stood at 33 nM.

In turn, `Cc1cc(NCCC(=O)Nc2ccccc2)nc(NCCc2cccs2)n1` registered an XC50 of 893 nM.

With `N=c1n(Cc2ccccc2)c2ccccc2n1CC(O)c1ccc(Cl)c(Cl)c1` (stereo not given), the XC50 stood at 828 nM.

Regarding `Cc1ccc(Oc2c(-c3ccccc3CN3CCCC3CN(C)C)cnn(C)c2=O)cn1` (stereo not given), the XC50 amounted to 1160 nM.

In turn, `COc1cc2nc(N3CCC(CNC(=O)c4cc(Br)c(Br)s4)CC3)nc(N)c2cc1OC` yielded an XC50 of 707 nM.

The molecule `CCc1nn2c(Nc3ccncc3)cc(C)nc2c1-c1ccccc1` had an XC50 of 203 nM.

On to `Cc1cc2nc(-c3ccc(/C=C/C(=O)NCCCc4ccccc4)cc3)[nH]c2cc1C`, for which the XC50 was 955 nM.

`O=C(Nc1ccc2c(c1)CCN2C1CCN(Cc2ccc(C(F)(F)F)cc2F)C1)c1ccco1` (stereo not given): the XC50 is 510 nM.

In turn, `Cc1[nH]c(C)c(-c2ccc(Oc3cccc(Cl)c3)cc2)c(=O)c1Cl` registered an XC50 of 20.8 nM.

`CC(C)CNCc1cccc(-c2ccc(CNc3ccc4ncccc4c3)cc2)c1` yielded an XC50 of 1060 nM.

As to `NCCc1cccc(-c2cnc3[nH]cc(-c4ccc(C(=O)O)cc4)c3c2)c1`, the XC50 was 397 nM.

`CN1CCN(CCCCCCNc2c3ccccc3nc3ccccc23)CC1` returned an XC50 of 722 nM.

In the case of `Cc1cccc2nc(-c3ccc(-c4cccc(NC(=O)c5cncn5C)c4)s3)[nH]c12`, the XC50 was 645 nM.

With `CN(c1ccc(NC(=O)Nc2cc(C(C)(C)C)on2)cc1)c1ccnc(NCCOC(=O)Nc2cc(C(C)(C)C)on2)n1`, the XC50 was 752 nM.
